Laboratory results from ChEMBL document CHEMBL3751759, “TRPA1 channels as targets for resveratrol and related stilbenoids” (Bioorg Med Chem Lett, 2016).

Tests used:
[1] = target: T1, Transient receptor potential cation channel subfamily V member 1 (Homo sapiens, UniProt Q8NER1); test: Agonist activity at human TRPV1 expressed in HEK293 cells assessed as induction of intracellular calcium level relative to […]; assay type: cell-based
[2] = target: T2, Transient receptor potential cation channel subfamily A member 1 (Rattus norvegicus, UniProt Q6RI86); test: Antagonist activity at rat TRPA1 expressed in HEK293 cells assessed as inhibition of allyl isothiocyanate-induced increase of intracellular calcium level; assay type: cell-based
T2 sequence (Q6RI86 whole entry): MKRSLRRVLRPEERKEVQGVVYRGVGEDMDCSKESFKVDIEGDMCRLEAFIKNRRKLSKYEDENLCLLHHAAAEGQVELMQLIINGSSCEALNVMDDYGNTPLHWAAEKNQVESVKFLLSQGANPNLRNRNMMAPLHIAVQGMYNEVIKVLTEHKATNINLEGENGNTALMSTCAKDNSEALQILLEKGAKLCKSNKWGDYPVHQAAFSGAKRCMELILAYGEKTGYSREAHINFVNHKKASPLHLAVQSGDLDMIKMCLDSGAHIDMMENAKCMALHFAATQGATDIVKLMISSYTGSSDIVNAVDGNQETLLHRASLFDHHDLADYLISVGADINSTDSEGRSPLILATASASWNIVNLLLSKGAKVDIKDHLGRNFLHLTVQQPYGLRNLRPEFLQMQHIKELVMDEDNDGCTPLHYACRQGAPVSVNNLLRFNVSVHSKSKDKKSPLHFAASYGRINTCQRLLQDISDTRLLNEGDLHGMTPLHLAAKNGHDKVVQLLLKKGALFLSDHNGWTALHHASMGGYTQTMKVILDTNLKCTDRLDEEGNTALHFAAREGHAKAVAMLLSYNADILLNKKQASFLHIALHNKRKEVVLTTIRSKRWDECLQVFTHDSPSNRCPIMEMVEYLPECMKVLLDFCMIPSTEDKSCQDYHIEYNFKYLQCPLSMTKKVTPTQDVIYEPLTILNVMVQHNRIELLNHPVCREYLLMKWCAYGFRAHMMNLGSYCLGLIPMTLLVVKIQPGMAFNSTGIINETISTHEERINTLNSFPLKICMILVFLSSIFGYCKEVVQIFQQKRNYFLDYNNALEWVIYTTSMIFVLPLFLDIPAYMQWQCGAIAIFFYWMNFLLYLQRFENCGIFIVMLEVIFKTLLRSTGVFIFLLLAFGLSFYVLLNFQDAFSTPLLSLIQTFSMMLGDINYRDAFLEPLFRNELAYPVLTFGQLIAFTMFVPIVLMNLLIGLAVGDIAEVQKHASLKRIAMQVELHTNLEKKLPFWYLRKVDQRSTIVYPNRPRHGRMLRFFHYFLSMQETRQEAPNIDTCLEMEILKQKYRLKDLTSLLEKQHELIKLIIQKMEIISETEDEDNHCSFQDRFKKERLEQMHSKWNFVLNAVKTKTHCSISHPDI

[3] = target: T2, Transient receptor potential cation channel subfamily A member 1; test: Agonist activity at rat TRPA1 expressed in HEK293 cells assessed as induction of intracellular calcium level; assay type: cell-based
[4] = target: Transient receptor potential cation channel subfamily A member 1 (Rattus norvegicus) (UniProt Q6RI86); test: Agonist activity at rat TRPA1 expressed in HEK293 cells assessed as induction of intracellular calcium level relative to allyl isothiocyanate; assay type: cell-based
Sequence of Transient receptor potential cation channel subfamily A member 1 (Rattus norvegicus) (Q6RI86 whole entry): as above

[5] = target: T1, Transient receptor potential cation channel subfamily V member 1; test: Antagonist activity at human TRPV1 expressed in HEK293 cells assessed as inhibition of […]-induced increase of intracellular calcium level; assay type: cell-based
[6] = target: T2, Transient receptor potential cation channel subfamily A member 1; test: Agonist activity at rat TRPA1 expressed in HEK293 cells assessed as induction of intracellular calcium level in presence of AITC; assay type: cell-based
[7] = target: T2, Transient receptor potential cation channel subfamily A member 1; test: Antagonist activity at rat TRPA1 expressed in HEK293 cells assessed as inhibition of AITC-induced increase of intracellular calcium level; assay type: cell-based
[8] = target: Transient receptor potential cation channel subfamily A member 1 (Homo sapiens, UniProt O75762); test: Antagonist activity at human TRPA1 expressed in HEK293 cells assessed as inhibition of allyl isothiocyanate-induced increase of intracellular calcium level; assay type: cell-based
Sequence of Transient receptor potential cation channel subfamily A member 1 (Homo sapiens, UniProt O75762) (O75762 whole entry): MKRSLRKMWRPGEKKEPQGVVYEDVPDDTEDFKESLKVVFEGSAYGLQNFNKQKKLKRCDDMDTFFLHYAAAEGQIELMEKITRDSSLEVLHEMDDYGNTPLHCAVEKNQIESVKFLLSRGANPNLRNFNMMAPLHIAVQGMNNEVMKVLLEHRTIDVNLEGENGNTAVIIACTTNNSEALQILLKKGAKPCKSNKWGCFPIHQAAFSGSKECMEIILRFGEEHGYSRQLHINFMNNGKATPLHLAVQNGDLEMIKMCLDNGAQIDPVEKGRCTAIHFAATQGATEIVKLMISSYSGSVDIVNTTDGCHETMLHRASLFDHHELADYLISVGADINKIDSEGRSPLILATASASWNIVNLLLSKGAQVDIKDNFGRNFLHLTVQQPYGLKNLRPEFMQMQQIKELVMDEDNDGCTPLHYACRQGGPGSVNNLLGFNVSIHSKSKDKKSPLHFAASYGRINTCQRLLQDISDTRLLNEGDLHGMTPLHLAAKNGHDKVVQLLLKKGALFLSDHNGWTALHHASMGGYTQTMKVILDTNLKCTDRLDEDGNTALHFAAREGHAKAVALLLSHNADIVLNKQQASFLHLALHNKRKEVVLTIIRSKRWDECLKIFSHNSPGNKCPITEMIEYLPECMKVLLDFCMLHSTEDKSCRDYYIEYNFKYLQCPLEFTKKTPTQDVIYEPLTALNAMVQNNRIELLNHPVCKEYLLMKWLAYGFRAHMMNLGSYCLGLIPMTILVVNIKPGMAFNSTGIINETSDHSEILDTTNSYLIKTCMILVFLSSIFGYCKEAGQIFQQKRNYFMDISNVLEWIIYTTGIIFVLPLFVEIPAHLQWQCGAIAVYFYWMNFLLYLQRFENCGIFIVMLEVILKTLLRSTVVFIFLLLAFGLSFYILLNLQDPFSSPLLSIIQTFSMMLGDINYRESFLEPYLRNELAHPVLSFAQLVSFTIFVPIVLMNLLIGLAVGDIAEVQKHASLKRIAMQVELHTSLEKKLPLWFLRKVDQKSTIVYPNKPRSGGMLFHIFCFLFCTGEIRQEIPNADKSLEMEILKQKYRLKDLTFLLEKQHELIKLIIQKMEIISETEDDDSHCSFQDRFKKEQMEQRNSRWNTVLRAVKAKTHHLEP

[9] = target: T1, Transient receptor potential cation channel subfamily V member 1; test: Antagonist activity at TRPV1 (unknown origin) in DRG neurons
[10] = target: T1, Transient receptor potential cation channel subfamily V member 1; test: Antagonist activity at human TRPV1 expressed in HEK293 cells assessed as inhibition of capsaicin-induced increase of intracellular calcium level; assay type: cell-based
[11] = target: T1, Transient receptor potential cation channel subfamily V member 1; test: Antagonist activity at human TRPV1 expressed in HEK293 cells; assay type: cell-based

T1 sequence (Q8NER1 whole entry): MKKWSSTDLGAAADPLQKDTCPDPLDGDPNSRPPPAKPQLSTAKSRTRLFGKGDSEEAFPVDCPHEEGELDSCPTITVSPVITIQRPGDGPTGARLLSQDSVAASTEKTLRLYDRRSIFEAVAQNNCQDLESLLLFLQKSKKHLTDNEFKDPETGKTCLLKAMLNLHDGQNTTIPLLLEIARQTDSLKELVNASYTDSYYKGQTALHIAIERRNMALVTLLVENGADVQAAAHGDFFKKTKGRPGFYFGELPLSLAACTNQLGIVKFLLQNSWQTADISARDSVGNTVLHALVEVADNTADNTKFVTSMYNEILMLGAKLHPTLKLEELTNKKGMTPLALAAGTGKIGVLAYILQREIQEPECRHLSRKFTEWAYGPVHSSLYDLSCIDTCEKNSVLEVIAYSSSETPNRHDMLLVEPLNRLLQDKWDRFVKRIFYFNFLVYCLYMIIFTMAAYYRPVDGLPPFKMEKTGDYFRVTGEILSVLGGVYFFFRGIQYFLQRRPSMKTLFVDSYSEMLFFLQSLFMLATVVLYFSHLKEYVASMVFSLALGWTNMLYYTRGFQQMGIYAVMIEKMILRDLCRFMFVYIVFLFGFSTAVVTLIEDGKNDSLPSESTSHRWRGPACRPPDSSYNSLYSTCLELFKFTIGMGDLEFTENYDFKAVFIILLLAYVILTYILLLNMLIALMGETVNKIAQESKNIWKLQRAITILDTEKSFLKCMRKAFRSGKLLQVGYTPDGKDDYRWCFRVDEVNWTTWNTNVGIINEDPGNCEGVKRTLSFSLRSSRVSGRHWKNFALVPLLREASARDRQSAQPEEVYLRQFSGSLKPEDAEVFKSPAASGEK

For `COc1ccc(/C=C/c2cccc(OC)c2)cc1`, the Efficacy [1] was less than 10%, the IC50 [2] was 2.9 µM and the EC50 [3] was 1.5 µM. The Efficacy [4] was 75% and the IC50 [5] was greater than 10 µM.

For `COc1cc(/C=C/c2ccccc2)cc(OC)c1` [3,5-O-DIMETHYLPINOSYLVIN], the Efficacy [1] was less than 10%, the IC50 [2] was 3.4 µM and the EC50 [3] was 1.7 µM. The Efficacy [4] was 84.1% and the IC50 [5] was greater than 10 µM.

For `Oc1ccccc1/C=C/c1ccccc1`, the Efficacy [1] was less than 10%, the IC50 [2] was 2.2 µM and the EC50 [3] was 0.58 µM. It also gave an Efficacy [4] of 88.4% and an IC50 [5] greater than 10 µM.

In the case of `Oc1cccc(/C=C/c2ccccc2)c1` [(E)-3-STILBENOL], the Efficacy [1] is reported as less than 10%, the IC50 [2] is reported as 3.4 µM and the EC50 [3] is reported as 1.8 µM. It also gave an Efficacy [4] of 77.4% and an IC50 [5] greater than 10 µM.

Work on `COc1ccc(/C=C/c2ccc(O)cc2)cc1` yielded an Efficacy [1] of less than 10%, an IC50 [2] of 10 µM and an EC50 [3] of 10.1 µM. It also gave an Efficacy [4] of 72.1% and an IC50 [5] greater than 10 µM.

`COc1cccc(/C=C/c2ccc(O)cc2)c1` [(E)-5-METHOXY-4'-STILBENOL] showed an Efficacy [1] of less than 10%, an IC50 [2] of 10.1 µM and an EC50 [3] of 6.6 µM. It also gave an Efficacy [4] of 41.8% and an IC50 [5] greater than 10 µM.

`COc1cccc(/C=C/c2ccccc2)c1` gave an Efficacy [1] of less than 10%, an IC50 [2] of 2.3 µM and an EC50 [3] of 1.7 µM. It also gave an Efficacy [4] of 101% and an IC50 [5] greater than 10 µM.

With `Oc1cc(O)cc(/C=C/c2ccccc2)c1` [PINOSYLVIN] the Efficacy [1] was less than 10%, the IC50 [2] was 12.1 µM and the Efficacy [4] was less than 10%. The IC50 [5] was greater than 10 µM.

Work on `CC(=O)Oc1ccc(/C=C/c2ccccc2)cc1` yielded an Efficacy [1] of less than 10%, an IC50 [2] of 29.4 µM and an EC50 [3] of 16.3 µM. The Efficacy [4] was 89.7% and the IC50 [5] was greater than 10 µM.

`Oc1ccc(/C=C/c2cc(O)cc(O)c2)cc1` [RESVERATROL] showed an IC50 [6] of 2.74 µM, an IC50 [2] of 19.9 µM and an IC50 [7] of 0.75 µM. It also gave an Efficacy [4] of less than 10%.

Compound `COc1cc(/C=C/c2ccc(O)cc2)cc(OC)c1` [PTEROSTILBENE] has an Efficacy [1] of less than 10%, an IC50 [2] of 7.5 µM and an EC50 [3] of 3.6 µM. It also gave an Efficacy [4] of 71.1% and an IC50 [5] greater than 10 µM.

`COc1ccccc1/C=C/c1ccccc1` gave an Efficacy [1] of less than 10%, an IC50 [2] of 1.7 µM and an EC50 [3] of 0.88 µM. The Efficacy [4] was 83.4% and the IC50 [5] was greater than 10 µM.

`CC(=O)Oc1ccc(/C=C/c2cc(OC(C)=O)cc(OC(C)=O)c2)cc1` [TRIACETYLRESVERATROL] showed an Efficacy [1] of less than 10%, an IC50 [2] of 11.8 µM and an EC50 [3] of 7.5 µM. For the same compound, the Efficacy [4] was 127% and the IC50 [5] was greater than 10 µM.

`COc1ccc(/C=C/c2cc(OC)cc(OC)c2)cc1` [TRISMETHOXYRESVERATROL] showed an Efficacy [1] of less than 10%, an IC50 [2] of 3 µM and an EC50 [3] of 1.7 µM. The Efficacy [4] was 72.5% and the IC50 [5] was greater than 10 µM.

Compound `Oc1ccc(/C=C/c2ccccc2)cc1` [(E)-4-STYRYLPHENOL] has an Efficacy [1] of less than 10%, an IC50 [2] of 5.5 µM and an EC50 [3] of 8.4 µM. For the same compound, the Efficacy [4] was 61.9% and the IC50 [5] was greater than 10 µM.

`Oc1ccc(/C=C/c2cccc(O)c2)cc1` [(E)-3,4'-STILBENDIOL] gave an Efficacy [1] of less than 10%, an IC50 [2] of 16.5 µM and an EC50 [3] of 13.5 µM. It also gave an Efficacy [4] of 73.4% and an IC50 [5] greater than 10 µM.

`Oc1ccc(/C=C/c2ccc(O)cc2)cc1` [TRANS-4,4'-DIHYDROXYSTILBENE] was tested, and the Efficacy [1] was less than 10%, the IC50 [2] was 25.2 µM and the EC50 [3] was 11 µM. It also gave an Efficacy [4] of 40% and an IC50 [5] greater than 10 µM.

With `COc1ccc(/C=C/c2ccccc2)cc1` the Efficacy [1] was less than 10%, the IC50 [2] was 17.8 µM and the IC50 [8] was 12.1 µM. The EC50 [3] was 2.4 µM, the Efficacy [4] was 49% and the IC50 [5] was greater than 10 µM.

Work on `CC(=O)Oc1ccccc1/C=C/c1ccccc1` yielded an Efficacy [1] of less than 10%, an IC50 [2] of 8.6 µM and an EC50 [3] of 7.2 µM. For the same compound, the Efficacy [4] was 135% and the IC50 [5] was greater than 10 µM.

In the case of `COc1ccc(/C=C/c2ccc(OC)cc2)cc1`, the Efficacy [1] is reported as less than 10%, the IC50 [2] is reported as 10.6 µM and the EC50 [3] is reported as 4.2 µM. It also gave an Efficacy [4] of 86.7% and an IC50 [5] greater than 10 µM.

Work on `COc1cc(O)cc(/C=C/c2ccccc2)c1` [PINOSYLVIN METHYL ETHER] yielded an Efficacy [1] of less than 10%, an IC50 [2] of 6.9 µM and an IC50 [9] of 30 µM. For the same compound, the IC50 [10] was 23.7 µM, the EC50 [3] was 3.5 µM and the Efficacy [4] was 71.4%. The IC50 [5] was greater than 10 µM and the IC50 [11] was 15 µM.
